In patent publication US20150223465A1, “COMPOSITION CONTAINING 3-CYCLOPROPYL-1-ENYL-PROPANOIC ACID SALTS AND A CARRIER” (Yissum Research Development Company of the Hebrew …, priority 2012, published 2015):

Columns and labels:
[1] = test system: cut carnation flowers; assay: Delaying senescence of cut carnation flowers: loading 24 h in CPAS solution, then 2 ppm ethylene for 24 h, visual inspection/photographs; assay type: in vivo, carnation (Dianthus caryophyllus); set-up: key to Results (ethylene antagonizing effect of CPAS by visual inspection): The result “−” means no ethylene antagonizing effect by visual inspection.; The result “+++” means high ethylene antagonizing effect by visual inspection.; The result “++++” means very high ethylene antagonizing effect by visual inspection
Description: (§1) The ethylene antagonizing effect of composition described herein can be assessed by its effect of delaying senescence of cut plants, such as cut flowers. Some embodiments of the present invention are based on the use of the composition described herein to treat cut flowers for delaying senescence of the cut flowers.
(§2) Cut Flowers: Unless otherwise noted, carnation flowers grown in a greenhouse were harvested at the beginning of flower opening stage, early in the morning, and were immediately brought to the laboratory. The flowers were either processed immediately or stored in a cold room (4° C.) for 1 to 5 days as required.
(§3) Treatment Procedure: The flower stems were cut under tap water to the desired lengths (15 cm-55 cm). Four flowers for each treatment group (of two flowers per each groups) were loaded in a 20 mL aqueous treatment solution (or “loading solution”) for 24 hours. The treatment solution was placed in a 35 mL tube. The loading solutions of CPAS in buffers were prepared in distilled water, as described hereinafter. At the end of CPAS loading, the flowers were transferred to tap water for 1 to 4 days until the cut flowers open. The cut flowers were then exposed to 2 ppm ethylene for 24 hours. Control cut flowers were loaded in a control solution without CPAS in the same manner as the treated cut flowers, and were thereafter exposed to ethylene or air. At the end of ethylene exposure, the flowers were ventilated and left in tap water under controlled conditions (a temperature of 22° C., a relative humidity of 80%, and continuous fluorescent light) for additional 5 days for senescence assessment.

[2] = test system: cut carnation flowers; assay: Flower diameter of cut carnations after CPAS loading and ethylene exposure; assay type: in vivo, carnation (Dianthus caryophyllus)
Method: as §3
Flower Diameter: In some experiments, flower diameter was determined according to the method described in Goren et al., Plant Growth Regulation 65:327-334 (2011), to assess flower quality.

[3] = test system: carnation flowers; assay: Loading 14-18 h with CPAS, 0-72 h in tap water, then ethylene for 24 h; vase life assessment; assay type: in vivo, carnation (Dianthus caryophyllus); settings: for protection from ethylene-induced senescence: loading 14-18 h, 1.0 ppm ethylene 24 h
Method: Carnation flower stems were cut under tap water to the desired lengths (36 and 55 cm). Four flowers per treatment, in groups of two flowers each, were loaded for 14-18 hours in 20 mL of treatment solutions containing 0, 30, 60 and 120 mg L^−1 CPAS in either an aqueous solution containing sodium carbonate/sodium bicarbonate buffer (40 mM, pH=9.5) and 0.025% Tween 20 or an aqueous solution containing K-Phosphate Buffer (40 mM, pH=7.8) and 0.025% Tween 20. At the end of CPAS loading (14-18 hours), groups of treated flowers were transferred into tap water for 0, 24, 48 and 72 hours. The cut flowers were then exposed to 1.0 ppm ethylene for 24 hours. At the end of the ethylene treatment, the flowers were ventilated and left under controlled conditions for additional 11, 10, 9, 8 days, respectively, for vase life assessment. Pictures of were taken 13 days after beginning of the experiment. It is noted that the carnation flowers tested were highly sensitive to ethylene, and therefore exposure to ethylene at an amount of 1.0 ppm was effected.

[4] = test system: cut carnation flowers; assay: Water uptake of treated cut flowers; settings: 60 or 120 ppm CPAS in 20 mM NaHCO3 pH 8.2; 36 cm stems; 48 hours after termination of ethylene exposure (2 ppm, 24 h)
Method: Water Uptake: The uptake of water by cut flowers was measured after CPAS loading and after ethylene exposure (exposure to 2 ppm ethylene for 24 hours, unless otherwise indicated). The aqueous treatment solution was maintained at 20 mL by addition of tap water after each treatment.
Aqueous treatment solutions of CPAS were prepared and tested, each of which contained 0, 60 or 120 ppm of CPAS in 20 mM NaHCO3 (pH 8.2). Cut flowers (36 cm long stems) were treated according to the treatment procedure described above.

[5] = test system: cut carnation flowers; assay: Delaying senescence of cut carnation flowers: loading 24 h in CPAS solution, then 2 ppm ethylene for 24 h, visual inspection/photographs; assay type: in vivo, carnation (Dianthus caryophyllus); set-up: key: The result “−” means no ethylene antagonizing effect by visual inspection.; The result “+++” means high ethylene antagonizing effect by visual inspection.; The result “++++” means very high ethylene antagonizing effect by visual inspection; settings: CPAS sodium salt 20-120 ppm, 36-55 cm stems
Description: as §1, §2, §3

[6] = test system: cut carnation flowers; assay: as above; assay type: in vivo, carnation (Dianthus caryophyllus); set-up: key: The result “−” means no ethylene antagonizing effect by visual inspection.; The result “+” means low ethylene antagonizing effect by visual inspection.; The result “++” means medium ethylene antagonizing effect by visual inspection.; The result “+++” means high ethylene antagonizing effect by visual inspection.; The result “++++” means very high ethylene antagonizing effect by visual inspection; settings: CPAS sodium salt 20-120 ppm, 36-55 cm stems
Description: as §1, §2
Treatment Procedure: The flower stems were cut under tap water to the desired lengths (15 cm-55 cm). Four flowers for each treatment group (of two flowers per each groups) were loaded in a 20 mL aqueous treatment solution (or “loading solution”) for 24 hours. The treatment solution was placed in a 35 mL tube. The loading solutions of CPAS in buffers were prepared in distilled water, as described hereinafter. At the end of CPAS loading, the flowers were transferred to tap water for 1 to 4 days until the cut flowers open. The cut flowers were then exposed to 2 ppm ethylene for 24 hours. Control cut flowers were loaded in a control solution without CPAS in the same manner as the treated cut flowers, and were thereafter exposed to ethylene or air. […]

## O=C([O-])CCC1=CC1.[Na+] [CPAS, 3-cyclopropyl-1-enyl-propanoic acid salt]
[1]; 36 cm stems, 60 and 120 ppm CPAS in Na-phosphate buffer (20 mM) containing NaHCO3 (60 mM), pH 7.2
  senescence of cut flowers: delayed senescence
[1]; 60 or 120 ppm CPAS in 20 mM Na2CO3/NaHCO3 buffer pH 9.4, 36 cm stems
  flower senescence: delayed flower senescence
[1]; 120 ppm CPAS in 20 mM NaHCO3 pH 8.2, 36 cm stems
  flower senescence: delayed flower senescence
[1]; CPAS sodium salt 20-120 ppm in Na2CO3/NaHCO3 buffer 20 mM pH 9.2-9.4
  Results (ethylene antagonizing effect of CPAS by visual inspection): ++++
[1]; CPAS sodium salt 20-120 ppm in Na-Phosphate buffer 20 mM pH 7.6
  Results (ethylene antagonizing effect of CPAS by visual inspection): −
[1]; CPAS sodium salt 20-120 ppm in NaHCO3 20 mM pH 8.2
  Results (ethylene antagonizing effect of CPAS by visual inspection): +++
[1]; CPAS sodium salt 20-160 ppm in Glycine/NaOH buffer 20 mM pH 8.8, 36 cm stems, loading 24 h
  senescence of cut flowers: no effect
[1]; CPAS sodium salt 20-160 ppm in H3BO3/NaOH buffer 20 mM pH 9.2, 36 cm stems, loading 24 h
  senescence of cut flowers: no effect
[1]; CPAS sodium salt 20-160 ppm in Na2CO3/NaHCO3 buffer 20 mM pH 9.4, 36 cm stems, loading 24 h
  senescence of cut flowers: showed delayed senescence
[1]; stem length 15 cm, 40, 60 and 120 ppm CPAS in 20 mM NaHCO3 pH 8.2
  senescence of cut flowers: showed delayed senescence
[1]; stem length 36 cm, 120 mM CPAS (so in the source) in 20 mM NaHCO3 pH 8.2
  senescence of cut flowers: showed delayed senescence
[1]; stem length 55 cm, 120 mM CPAS (so in the source) in 20 mM NaHCO3 pH 8.2
  senescence of cut flowers: No delayed senescence
[1]; stem length 55 cm, 60 or 120 ppm CPAS in 60 mM Na2CO3/NaHCO3 buffer pH 9.4
  senescence of cut flowers: showed delayed senescence
[1]; stem length 55 cm, 120 ppm CPAS in 60 mM NaHCO3 pH 8.2
  senescence of cut flowers: showed delayed senescence
[2]; 55 cm stems, 100, 120 or 140 ppm CPAS in Na-phosphate or Na-phosphate/citrate buffer containing NaHCO3
  senescence of cut flowers as measured by flower diameter: delayed senescence was generally observed
[2]; 55 cm stems, CPAS in Na-phosphate buffer (20 mM) containing NaHCO3
  effect of NaHCO3 concentration (60 or 80 mM) on treatment results: did not significantly affect the treatment results
[2]; 55 cm stems, CPAS in Na-phosphate/citrate buffer (20 mM) containing NaHCO3
  effect of NaHCO3 concentration (60 or 80 mM) on treatment results: 80 mM NaHCO3 yielding better treatment results than 60 mM NaHCO3
[2]; stem length 55 cm, 80 or 120 ppm CPAS in 40, 60 or 80 mM Na2CO3/NaHCO3 buffer
  senescence of cut flowers as measured by flower diameter: delayed senescence
[2]; stem length 55 cm, 80 ppm CPAS in 80 mM NaHCO3
  senescence of cut flowers as measured by flower diameter: delayed senescence
[2]; stem length 55 cm, 120 ppm CPAS in 60 mM NaHCO3 versus 40 and 80 mM
  ethylene antagonizing effect compared among NaHCO3 concentrations: highest ethylene antagonizing effect
[2]; stem length 55 cm, 120 ppm CPAS in 40, 60 or 80 mM NaHCO3
  senescence of cut flowers as measured by flower diameter: delayed senescence
[3]; CPAS 60 and 120 mg L^−1 in K-Phosphate buffer 40 mM pH 7.8, 0.025% Tween 20
  protection from ethylene-induced senescence: almost no protection
[3]; CPAS 60 and 120 mg L^−1 in sodium carbonate/sodium bicarbonate buffer 40 mM pH 9.5, 0.025% Tween 20
  protection from ethylene-induced senescence: significantly protected
[3]; CPAS at the two higher concentrations in Na-Carbonate buffer
  protection with ethylene treatment 2 and 3 days after pretreatment: more protected as the incubation time increases
[3]; ethylene exposure 3 days after pretreatment with CPAS
  resistance to ethylene-induced flower senescence after pretreatment: resistant
[4]
  water uptake of flowers: increased water uptake
[5]; Glycine/NaOH buffer 20 mM pH 8.8
  Results (efficacy of CPAS, ethylene antagonizing effect by visual inspection): −
[5]; H3BO3/NaOH buffer 20 mM pH 9.2
  Results (efficacy of CPAS, ethylene antagonizing effect by visual inspection): −
[5]; HCl-TRIS buffer 20 mM pH 8.4
  Results (efficacy of CPAS, ethylene antagonizing effect by visual inspection): −
[5]; Isopropylamine 500-1000 ppm pH 11.0
  Results (efficacy of CPAS, ethylene antagonizing effect by visual inspection): −
[5]; K-Citrate/Citric Ac. buffer 20 mM pH 4.65
  Results (efficacy of CPAS, ethylene antagonizing effect by visual inspection): −
[5]; K-Citrate/Citric Ac. buffer 20 mM pH 5.0 with 2,3-butanedione (500 ppm)
  Results (efficacy of CPAS, ethylene antagonizing effect by visual inspection): −
[5]; K-Citrate/Citric Ac. buffer 20 mM pH 5.0 with EMK (5%)
  Results (efficacy of CPAS, ethylene antagonizing effect by visual inspection): −
[5]; K-Citrate/Citric Ac. buffer 20 mM pH 5.0 with PVP (0.5%)
  Results (efficacy of CPAS, ethylene antagonizing effect by visual inspection): −
[5]; Na2B4O7/NaOH buffer 20 mM pH 9.4
  Results (efficacy of CPAS, ethylene antagonizing effect by visual inspection): −
[5]; Na2CO3/NaHCO3 buffer 40 mM pH 9.2-9.4 with Chloramphenicol 150 μM
  Results (efficacy of CPAS, ethylene antagonizing effect by visual inspection): ++++
[5]; Na2CO3/NaHCO3 buffer 20-80 mM pH 9.2-9.4
  Results (efficacy of CPAS, ethylene antagonizing effect by visual inspection): ++++
[5]; Na-Phosphate buffer 20 mM pH 6.0 + NaHCO3 60-80 mM, pH 7.4
  Results (efficacy of CPAS, ethylene antagonizing effect by visual inspection): +++
[5]; Na-Phosphate buffer 20 mM pH 7.6
  Results (efficacy of CPAS, ethylene antagonizing effect by visual inspection): −
[5]; Na-Phosphate/Citrate buffer 20 mM pH 6.0 + NaHCO3 60-80 mM, pH 7.2
  Results (efficacy of CPAS, ethylene antagonizing effect by visual inspection): +++
[5]; NaHCO3 40 mM pH 8.2 with Chloramphenicol 50 μM
  Results (efficacy of CPAS, ethylene antagonizing effect by visual inspection): +++
[5]; NaHCO3 20-80 mM pH 8.2
  Results (efficacy of CPAS, ethylene antagonizing effect by visual inspection): +++
[6]; EDTA 500-1000 ppm
  Results (efficacy of CPAS, ethylene antagonizing effect by visual inspection): +
[6]; KHCO3 20-80 mM pH 8.2
  Results (efficacy of CPAS, ethylene antagonizing effect by visual inspection): ++
